Data published in ChEMBL document CHEMBL3885881, “DrugMatrix”.

Species on record: Rattus norvegicus
Test: DrugMatrix - Regimen: Daily Repeat
Format: toxicity, organism-based, Sprague-Dawley
Design: regimen Daily Repeat, gender Male, age 6-8 weeks
Conditions: in vivo, po, route oral GAVAGE, vehicle .5 % CMC; for ABSOLUTE BASOPHIL / ABSOLUTE EOSINOPHIL / ABSOLUTE LYMPHOCYTE / ABSOLUTE MONOCYTE / BASOPHIL / ERYTHROCYTE COUNT / HEMATOCRIT / HEMOGLOBIN / LYMPHOCYTE / MEAN CORPUSCULAR HEMOGLOBIN / MEAN CORPUSCULAR HEMOGLOBIN CONCENTRATION / MEAN CORPUSCULAR VOLUME / NEUTROPHIL / NUCLEATED RED BLOOD CELLS / PLATELET COUNT / ABSOLUTE SEGMENTED NEUTROPHIL: tissue Blood; for ALANINE AMINOTRANSFERASE / ALKALINE PHOSPHATASE / ASPARTATE AMINOTRANSFERASE / BLOOD UREA NITROGEN / CARBON DIOXIDE / CHOLESTEROL / CREATINE PHOSPHOKINASE / CREATININE / GLUCOSE / LACTATE DEHYDROGENASE / LIPASE / PHOSPHORUS / POTASSIUM / SODIUM / TOTAL BILIRUBIN / TOTAL PROTEIN: tissue Plasma
[1] = 0 mg/kg, 72 h, dose level Control, time 3 day
[2] = 0 mg/kg, 120 h, dose level Control, time 5 day
[3] = 0.06 mg/kg, 72 h, dose level Low, time 3 day

Compound: CC(=O)CC(c1ccccc1)c1c(O)c2ccccc2oc1=O (stereo not given) [WARFARIN]
- ABSOLUTE BASOPHIL [1]: 0 CELLS/uL
- ABSOLUTE EOSINOPHIL [1]: 284.5 CELLS/uL
- ABSOLUTE LYMPHOCYTE [1]: 11670.5 CELLS/uL
- ABSOLUTE MONOCYTE [1]: 420.83 CELLS/uL
- BASOPHIL [1]: 0%
- ERYTHROCYTE COUNT [1]: 5.38 x10E6/uL
- HEMATOCRIT [1]: 34.05%
- HEMOGLOBIN [1]: 12.75 G/DL
- LYMPHOCYTE [1]: 88.33%
- MEAN CORPUSCULAR HEMOGLOBIN [1]: 23.73 pg
- MEAN CORPUSCULAR HEMOGLOBIN CONCENTRATION [1]: 37.43 G/DL
- MEAN CORPUSCULAR VOLUME [1]: 63.4 fL
- NEUTROPHIL [1]: 7.17%
- NUCLEATED RED BLOOD CELLS [1]: 0 /100WBC
- PLATELET COUNT [1]: 1184.67 x10E3/uL
- ALANINE AMINOTRANSFERASE [1]: 45.33 u/L
- ALKALINE PHOSPHATASE [1]: 388.83 u/L
- ASPARTATE AMINOTRANSFERASE [1]: 84.83 u/L
- BLOOD UREA NITROGEN [1]: 15.5 mg/dL
- CARBON DIOXIDE [1]: 27 mmol/L
- CHOLESTEROL [1]: 76.67 mg/dL
- CREATINE PHOSPHOKINASE [1]: 301 u/L
- CREATININE [1]: 0.21 mg/dL
- GLUCOSE [1]: 168.83 mg/dL
- LACTATE DEHYDROGENASE [1]: 294.83 u/L
- LIPASE [1]: 9.8 u/L
- PHOSPHORUS [1]: 13.25 mg/dL
- POTASSIUM [1]: 6.41 MEQ/L
- SODIUM [1]: 143.72 MEQ/L
- TOTAL BILIRUBIN [1]: 0.22 mg/dL
- TOTAL PROTEIN [1]: 5.98 G/DL
- ABSOLUTE BASOPHIL [2]: 0 CELLS/uL
- ABSOLUTE EOSINOPHIL [2]: 190.67 CELLS/uL
- ABSOLUTE LYMPHOCYTE [2]: 12549.5 CELLS/uL
- ABSOLUTE MONOCYTE [2]: 276 CELLS/uL
- ABSOLUTE SEGMENTED NEUTROPHIL [2]: 1067.17 CELLS/uL
- BASOPHIL [2]: 0%
- ERYTHROCYTE COUNT [2]: 5.66 x10E6/uL
- HEMATOCRIT [2]: 35.92%
- HEMOGLOBIN [2]: 13.65 G/DL
- LYMPHOCYTE [2]: 89%
- MEAN CORPUSCULAR HEMOGLOBIN [2]: 24.12 pg
- MEAN CORPUSCULAR HEMOGLOBIN CONCENTRATION [2]: 38.03 G/DL
- MEAN CORPUSCULAR VOLUME [2]: 63.47 fL
- NEUTROPHIL [2]: 7.67%
- NUCLEATED RED BLOOD CELLS [2]: 0.17 /100WBC
- PLATELET COUNT [2]: 1251.67 x10E3/uL
- ALANINE AMINOTRANSFERASE [2]: 43.33 u/L
- ALKALINE PHOSPHATASE [2]: 365.67 u/L
- ASPARTATE AMINOTRANSFERASE [2]: 83.67 u/L
- BLOOD UREA NITROGEN [2]: 18.17 mg/dL
- CARBON DIOXIDE [2]: 28.67 mmol/L
- CHOLESTEROL [2]: 71.5 mg/dL
- CREATINE PHOSPHOKINASE [2]: 284.5 u/L
- CREATININE [2]: 0.21 mg/dL
- GLUCOSE [2]: 161.67 mg/dL
- LACTATE DEHYDROGENASE [2]: 259.67 u/L
- LIPASE [2]: 9.5 u/L
- PHOSPHORUS [2]: 12.45 mg/dL
- POTASSIUM [2]: 6.49 MEQ/L
- SODIUM [2]: 144.25 MEQ/L
- TOTAL BILIRUBIN [2]: 0.2 mg/dL
- TOTAL PROTEIN [2]: 6.1 G/DL
- ABSOLUTE BASOPHIL [3]: 0 CELLS/uL
- ABSOLUTE EOSINOPHIL [3]: 18.67 CELLS/uL
- ABSOLUTE LYMPHOCYTE [3]: 6429.67 CELLS/uL
- ABSOLUTE MONOCYTE [3]: 120.33 CELLS/uL
- ABSOLUTE SEGMENTED NEUTROPHIL [3]: 364.67 CELLS/uL
- BASOPHIL [3]: 0%
- ERYTHROCYTE COUNT [3]: 5.26 x10E6/uL
- HEMATOCRIT [3]: 33.97%
- HEMOGLOBIN [3]: 12.8 G/DL
- LYMPHOCYTE [3]: 92.67%
- MEAN CORPUSCULAR HEMOGLOBIN [3]: 24.33 pg
- MEAN CORPUSCULAR HEMOGLOBIN CONCENTRATION [3]: 37.67 G/DL
- MEAN CORPUSCULAR VOLUME [3]: 64.6 fL
- NEUTROPHIL [3]: 5.33%
- NUCLEATED RED BLOOD CELLS [3]: 0 /100WBC
- PLATELET COUNT [3]: 1234.33 x10E3/uL
- ALANINE AMINOTRANSFERASE [3]: 50 u/L
- ALKALINE PHOSPHATASE [3]: 307.67 u/L
- ASPARTATE AMINOTRANSFERASE [3]: 80.67 u/L
- BLOOD UREA NITROGEN [3]: 15.33 mg/dL
- CARBON DIOXIDE [3]: 28.67 mmol/L
- CHOLESTEROL [3]: 72.67 mg/dL
- CREATINE PHOSPHOKINASE [3]: 222.67 u/L
- CREATININE [3]: 0.21 mg/dL
- GLUCOSE [3]: 142.33 mg/dL
- LACTATE DEHYDROGENASE [3]: 174.67 u/L
- LIPASE [3]: 9.5 u/L
- PHOSPHORUS [3]: 12.87 mg/dL
- POTASSIUM [3]: 6.97 MEQ/L
- SODIUM [3]: 146.9 MEQ/L
- TOTAL BILIRUBIN [3]: 0.23 mg/dL
- TOTAL PROTEIN [3]: 6.03 G/DL
